Legend:
[1] = tested on: phosphatidyl inositol-3-kinase (PI3K) family; test: Selectivity study; type: biochemical; conditions: data not given
[2] = tested on: PC-3; test: Established PC-3 mouse xenograft tumors; type: in vivo
Excerpt: (§1) Male and female Nu/Nu mice were purchased from Harlan Sprague Dawley (Indianapolis, IN). Female Nu/Nu mice were used for all xenograft evaluations with the exception of the PC-3 xenografts where male Nu/Nu mice were used. Cell lines were expanded In vitro in complete media, and if adherent were harvested by trypsin-EDTA, centrifuged and resuspended in PBS 1:1 with Matrigel (BD Bioscienes). Cells were inoculated subcutaneously in the right hind flank of mice. When tumors reached 100-200 mm^3 by caliper measurement, mice were randomized and dosing of SGI-9481 or vehicle control began and continued every day for 5 days (QDx5) with 2 days off for 18-21 days. Tumor volumes and body weights were determined twice a week, and tumor weights were measured at the completion of the translational xenograft studies.

[3] = tested on: UM-UC-3; test: Established UM-UC-3 mouse xenograft tumors; type: in vivo
Excerpt: as §1

[4] = tested on: NIH-3T3/PIM-2; test: NIH-3T3/PIM-2 over-expression tumor xenograft; type: in vivo, mouse
Excerpt: as §1
(§2) . The prostate cancer cell line 22RV1 engineered to over-express PIM-1 as previously described (Mumenthaler, et al, Mol. Cancer Ther., 2009, 8(10)2882-93) was evaluated in vivo. A second model engineered to over-express PIM-2 was established using the NIH-3T3 mouse fibroblast cell line. […]. […].

[5] = tested on: 22RV1/PIM-1; test: 22RV1/PIM-1 over-expression tumor xenograft; type: in vivo, mouse
Excerpt: as §1, §2

[6] = tested on: UM-UC-3 cells; test: Colony formation assay, UM-UC-3; type: cell-based
Description: (§3) For shRNA growth experiments, 500 UM-UC-3 cells were seeded in a 12-well plate 48 hours post-transduction and cultured for 8-10 days at 37°C in 5% CO2. Cells were fixed with 4% paraformaldehyde in PBS, washed twice with PBS, and stained with a crystal violet solution (1% crystal violet, 10% ethanol in water). Stained cells were washed thrice with water, and imaged after drying on a GelCount colony counter (Oxford Optronix Ltd., Oxford, UK). Total staining intensity per well was determined by lysis of cells with 200 µl of Triton X-100 lysis buffer (1% Triton X-100, 50 mM Tris-HCl pH 7.4, 150 mM NaCl, 1 mM EDTA). Lysates (100 µl) from each well were transferred to a clear 96-well plate and absorbance at 560 nm was determined on an Envision microplate reader. IC50 values were determined using GraphPad Prism software. For compound treated PC-3 and UM-UC-3, cells were seeded and stained as above, but were incubated with various concentrations of test compound or DMSO one day after seeding.
(§4) Translational models were also explored for PIM dependency using shRNA knockdown. The UM-UC-3 urinary epithelial bladder carcinoma cell line was used to verify and validate dependency on PIM-1 for growth.

[7] = tested on: PC-3 cells; test: Colony formation assay, PC-3; type: cell-based
Description: as §3, §4

[8] = tested on: MV-4-11 (FLT3-ITD); test: MV-4-11 mouse xenograft study; type: in vivo; conditions: MV-4-11 xenografts (FLT3-ITD)
Excerpt: as §1

[9] = tested on: ML-2 cells (wild-type FLT3); test: ML-2 mouse xenograft study; type: in vivo; conditions: ML-2 xenografts (wild-type FLT3)
Excerpt: as §1

[10] = 125 mg/kg, less than with 200 mg/kg

For `CC(C)(O)[C@H]1CC[C@H](Nc2ccc3ncc(-c4cccc(C(F)(F)F)c4)n3n2)CC1` [8-31], the “inhibitory activity against multiple members of the PI3K family” value [1] was “inhibitory activity”, the tumor growth inhibition [2, 10] was “significant tumor growth inhibition” and the “plasma and tumor tissue levels” value ([2]; PC-3 tumor-burdened mice, 200 mg/kg) was “above the in vitro proliferation EC50”. The “body weight or gross adverse toxicity” value ([2]; oral dosing of 200 mg/kg) was “no significant changes in body weight or gross adverse toxicity”, the “tumor growth measured by volume (caliper) and by final tumor weight” value ([2]; oral dosing of 200 mg/kg) was “significantly reduced” and the tumor growth inhibition [3, 10] was “significant tumor growth inhibition”. For the same compound, the “body weight or gross adverse toxicity” value ([3]; oral dosing of 200 mg/kg) was “no significant changes in body weight or gross adverse toxicity”, the “tumor growth measured by volume (caliper) and by final tumor weight” value ([3]; oral dosing of 200 mg/kg) was “significantly reduced” and the subcutaneous tumor growth ([4]; NIH-3T3/PIM-2 + compound vs. NIH-3T3/PIM-2 + vehicle) was “significantly inhibited”. For the same compound, the body weight ([4]; NIH-3T3/PIM-2 xenograft mice) was “No significant changes in body weight”, the subcutaneous tumor growth ([5]; 22RV1/PIM-1 + compound vs. 22RV1/PIM-1 + vehicle) was “significantly reduced” and the body weight ([5]; 22RV1/PIM-1 xenograft mice) was “No significant changes in body weight”. For the same compound, the colony growth [6] was “reduced colony growth”, the colony growth [7] was “reduced colony growth” and the “effect on established xenografts” value [8] was “induced regressions”. The tumor growth inhibition [9] was “significant tumor growth inhibition”.

Source: patent EP3409278B1, “HETEROCYCLIC PROTEIN KINASE INHIBITORS” (Tolero Pharmaceuticals, Inc., priority 2011, dated 2013)
